Test results from the NIST ThermoML archive (doi:10.1016/j.jct.2012.06.014).

Experiment: cn = amount concentration of the nth substance listed, in mol/dm3
Conditions: 298.15 K, 101 kPa, Liquid, Open capillary

O=S(=O)([O-])[O-].O=S(=O)([O-])[O-].O=S(=O)([O-])[O-].[Fe+3].[Fe+3] [ferric sulfate] + O
Conditions	binary diffusion coefficient [m2/s]
c1 = 0.05	1.48e-09
c1 = 0.06	1.45e-09
c1 = 0.08	1.42e-09
c1 = 0.1	1.41e-09
c1 = 0.15	1.42e-09
c1 = 0.2	1.48e-09
